Laboratory results as given in patent publication EP0710486A1, “REMEDY FOR URINATION DISORDER ACCOMPANYING PROSTATIC HYPERTROPHY” (YAMANOUCHI PHARMACEUTICAL CO. LTD., priority 1993, dated 1995).
Read-outs that look alike come from different tables or passages of the source.

What was measured:
rat α1B-receptor subtype [1] = biological target: T1, rat α1B-receptor subtype (Rattus norvegicus, UniProt P15823); test: Competitive binding experiment against [³H] prazosin, transfected COS-7 cell membranes; parameters: pcDV1Rα1B which contains a 2573 bp fragment containing the entire coding region of α1B receptor subtype cDNA; expressed in transfected cells; host or cells: COS-7 cells, transient expression, membrane preparation
T1 sequence (P15823 1-515): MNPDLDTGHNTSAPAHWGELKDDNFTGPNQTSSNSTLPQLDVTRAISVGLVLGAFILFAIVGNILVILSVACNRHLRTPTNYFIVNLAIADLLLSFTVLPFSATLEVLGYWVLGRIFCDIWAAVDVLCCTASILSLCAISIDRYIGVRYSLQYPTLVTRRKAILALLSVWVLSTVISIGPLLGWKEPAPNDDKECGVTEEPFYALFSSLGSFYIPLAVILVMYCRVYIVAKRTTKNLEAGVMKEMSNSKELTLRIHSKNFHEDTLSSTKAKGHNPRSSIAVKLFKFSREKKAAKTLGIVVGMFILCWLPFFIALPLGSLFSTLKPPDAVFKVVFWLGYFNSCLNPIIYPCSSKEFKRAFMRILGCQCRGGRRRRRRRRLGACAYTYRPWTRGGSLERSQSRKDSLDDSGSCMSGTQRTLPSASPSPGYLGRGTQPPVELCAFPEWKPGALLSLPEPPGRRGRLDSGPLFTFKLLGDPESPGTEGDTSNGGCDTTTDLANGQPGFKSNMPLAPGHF
Description: (§1) After 4 days of the transfection, these cells were again suspended in an ice-cold buffer for binding experiment (50 mmol/l Tris, 0.5 mmol/l EDTA, pH 7.5) and homogenized using Tissumeizer for 10 seconds at a maximum speed and then twice for 20 seconds at 2/3 speed. The thus obtained homogenate was centrifuged at 50,000 g for 20 minutes, and the resulting pellet was again suspended in the buffer for binding experiment to a concentration of 0.5 to 2 mg/ml.
(§2) This incubation was terminated by quick filtration under a reduced pressure using Whatman GF/C filter paper. Non-specific binding was defined as binding in the presence of 10 µmol/l of phentolamine. […] The protein content was determined in accordance with the Bradford method using bovine IgG as an standard. In the competitive binding experiment, each compound was evaluated by 3 to 4 tests using at least two separate batches of transfected cells.
(§3) The result was shown as the average value ± SEM of n times of tests.

[2] = human clinical tests (K. Kawabe et al., J. Urol., 1990); cited from earlier work
[3] = biological target: T2, bovine α1C-receptor subtype (Bos taurus, UniProt P18130); test: Competitive binding experiment against [³H] prazosin, transfected COS-7 cell membranes
T2 construct: pBCα1c which contains the entire coding region of bovine α1C receptor subtype; expressed in transfected cells; host or cells: COS-7 cells, transient expression, membrane preparation
T2 sequence (P18130 1-466): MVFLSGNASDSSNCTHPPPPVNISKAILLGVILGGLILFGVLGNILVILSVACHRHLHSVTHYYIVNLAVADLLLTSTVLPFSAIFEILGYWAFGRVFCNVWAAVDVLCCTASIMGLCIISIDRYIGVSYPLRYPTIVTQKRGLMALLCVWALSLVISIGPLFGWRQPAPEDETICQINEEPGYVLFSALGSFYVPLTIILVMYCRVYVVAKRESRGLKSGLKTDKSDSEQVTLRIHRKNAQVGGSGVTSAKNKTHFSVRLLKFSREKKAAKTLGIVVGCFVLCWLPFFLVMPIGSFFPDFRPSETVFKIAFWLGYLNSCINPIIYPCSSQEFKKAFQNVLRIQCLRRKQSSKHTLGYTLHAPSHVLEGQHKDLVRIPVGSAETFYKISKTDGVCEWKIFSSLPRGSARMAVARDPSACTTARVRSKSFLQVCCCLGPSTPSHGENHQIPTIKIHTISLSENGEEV

[4] = biological target: T3, rat α1A/D-receptor subtype (Rattus norvegicus, UniProt P23944); settings: average ± SEM, n=8
T3 sequence (P23944 1-561): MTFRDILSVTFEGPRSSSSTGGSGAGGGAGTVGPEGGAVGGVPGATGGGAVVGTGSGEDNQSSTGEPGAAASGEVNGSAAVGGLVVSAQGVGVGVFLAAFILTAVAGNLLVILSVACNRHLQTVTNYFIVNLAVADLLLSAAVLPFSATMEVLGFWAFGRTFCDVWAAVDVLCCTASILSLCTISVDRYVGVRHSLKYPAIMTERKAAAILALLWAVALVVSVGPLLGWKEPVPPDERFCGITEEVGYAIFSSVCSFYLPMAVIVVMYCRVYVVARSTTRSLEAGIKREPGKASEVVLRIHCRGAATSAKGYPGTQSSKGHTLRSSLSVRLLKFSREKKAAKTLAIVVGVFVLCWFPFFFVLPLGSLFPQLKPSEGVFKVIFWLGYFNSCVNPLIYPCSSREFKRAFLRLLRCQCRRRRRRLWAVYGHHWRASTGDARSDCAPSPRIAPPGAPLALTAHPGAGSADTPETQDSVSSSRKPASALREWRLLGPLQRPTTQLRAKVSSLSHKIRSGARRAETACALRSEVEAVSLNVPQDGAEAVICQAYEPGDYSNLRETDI
Description: as §1, §2, §3

rat α1B-receptor subtype [5] = biological target: T1, rat α1B-receptor subtype; settings: average ± SEM, n=5
Description: as §1, §2, §3

[6] = read-out: negative logarism values (-log values) of Ki values (converted)

## CCOc1ccccc1OCCN[C@H](C)Cc1ccc(OC)c(S(N)(=O)=O)c1 [Compound A, R(-)-5-[2-[[2-(o-ethoxyphenoxy)ethyl]amino]propyl]-2-methoxybenzenesulfonamide]
Rat α1B-receptor subtype [1]; [6]
  Ki: 0.871 nM
[2]
  influence upon blood pressure: without exerting influence upon blood pressure
  side effects: hardly shows side effects
  treatment of urinary outlet obstruction associated with benign prostatic hyperplasia: useful in treating urinary outlet obstruction associated with benign prostatic hyperplasia
[3]
  Ki: 0.0229 nM

## [³H] prazosin
[4]
  BMAX: 240 ± 87 fmol/mg protein
Rat α1B-receptor subtype [5]
  BMAX: 1673 ± 1203 fmol/mg protein

## CCOc1ccccc1OCCN[C@@H](C)Cc1ccc(OC)c(S(N)(=O)=O)c1 [Compound B, S(+)-5-[2-[[2-(o-ethoxyphenoxy)ethyl]amino]propyl]-2-methoxybenzenesulfonamide]
Rat α1B-receptor subtype [1]
  Ki: 105 nM
[3]; [6]
  Ki: 0.347 nM
